The assay deals with RSV (Long). In words: RSV cytopathic effect (CPE)-based viral replication assay. Format: cell-based, respiratory syncytial virus (RSV). The note with it: read-out: EC50 (nm). As for the experimental part: Example A: RSV Cytopathic Effect
Compounds of the invention are initially tested in a cytopathic effect (CPE)-based viral replication assay using immortalized cells and a laboratory strain of RSV (Long). This assay evaluates the ability of a compound to inhibit viral replication.
Assay plates are prepared by seeding 2,500 HEp-2 cells (ATCC) per well of a 384-well black clear-bottom plate (Greiner Bio-One) in 20 μL of assay media (defined as DMEM supplemented with 2% heat-inactivated fetal bovine serum and 1% Penicillin/Streptomycin). Assay plates are incubated overnight at 37° C. in an incubator containing 5% CO2. The following day, a 10-point serial dilution of test compound is prepared in DMSO. Compounds are subsequently diluted with assay media and 20 μL of diluted compound (containing 1.5% DMSO) is transferred to an assay plate for evaluation of antiviral activity.
For the CPE assay, cells are infected at a Multiplicity of Infection (MOI) of 0.015 using 20 μL of RSV Long (ATCC) diluted in assay media. The DMSO concentration is constant throughout the assay plate, including the negative and positive controls. The assay plate is incubated for 3 days at 37° C. in an incubator containing 5% CO2. Cell viability is evaluated with the addition of 10 μL of CellTiter-Glo (ProMega). Luminescence is measured using an EnVision plate reader (Perkin Elmer). EC50 values are calculated using the raw data from the CPE assays.

Where [1] appears, read: HEp-2 cells infected with RSV Long at MOI 0.015, 3 days at 37° C., cell viability by CellTiter-Glo luminescence.
[2] abbreviates: human respiratory syncytial virus, HEp-2, 72 h, HEp-2 cells infected with RSV Long at MOI 0.015, 3 days at 37° C., cell viability by CellTiter-Glo luminescence.

These results are taken from US20190002436A1, “RESPIRATORY SYNCYTIAL VIRUS INHIBITORS” (MEDIVIR AB, priority 2015, published 2019).

Each structure is given as a SMILES string. Where two headings read alike, the source gives them in different places.

Consider `O=C1N(Cc2ncc3ccccc3c2-c2ccc(F)nc2)c2ccccc2C12CC(NCCF)C2` (single isomer, unassigned) [Example 87-1, 3-((2-fluoroethyl)amino)-1′-((4-(6-fluoropyridin-3-yl)isoquinolin-3-yl)methyl)spiro[cyclobutane-1,3′-indolin]-2′-one], for which the EC50 under setting [1] is 21 nM.

For `O=C1N(Cc2ncc3ccccc3c2-c2ccc(F)nc2)c2ccccc2C12CC(NCCF)C2` (single isomer, unassigned) [Example 87-2, 3-((2-fluoroethyl)amino)-1′-((4-(6-fluoropyridin-3-yl)isoquinolin-3-yl)methyl)spiro[cyclobutane-1,3′-indolin]-2′-one], the half-maximal effective concentration (EC50) under setting [1] was determined as 4.6 nM.

Regarding `O=c1n(Cc2ncc3ccccc3c2CCCCO)c2cnccc2n1C1CC1` [Example 1c, 1-cyclopropyl-3-((4-(4-hydroxybutyl)isoquinolin-3-yl)methyl)-1H-imidazo[4,5-c]pyridin-2(3H)-one], the EC50 under setting [2] worked out at 13 nM.

In the case of `COC(=O)N1CCC(n2c(=O)n(Cc3ncc4ccccc4c3CCCCO)c3cnccc32)CC1` [Example 2d, Methyl 4-(3-((4-(4-hydroxybutyl)isoquinolin-3-yl)methyl)-2-oxo-2,3-dihydro-1H-imidazo[4,5-c]pyridin-1-yl)piperidine-1-carboxylate], the half-maximal effective concentration (EC50) under setting [2] stood at 2 nM.

Take `O=c1n(Cc2ncc3ccccc3c2CCCCO)c2cnccc2n1CC(F)(F)F` [Example 3c, 3-((4-(4-hydroxybutyl)isoquinolin-3-yl)methyl)-1-(2,2,2-trifluoroethyl)-1H-imidazo[4,5-c]pyridin-2(3H)-one]: the EC50 under setting [2] turned out to be 23 nM.

With `O=c1n(Cc2ncc3ccccc3c2CCCCO)c2cnccc2n1-c1ccc(F)cc1` [Example 4c, 1-(4-fluorophenyl)-3-((4-(4-hydroxybutyl)isoquinolin-3-yl)methyl)-1H-imidazo[4,5-c]pyridin-2(3H)-one], the EC50 under setting [2] came out at 20 nM.

In the case of `O=c1n(Cc2ncc3ccccc3c2CCCCO)c2ccccc2n1CC(F)(F)F` [Example 5c, 1-((4-(4-hydroxybutyl)isoquinolin-3-yl)methyl)-3-(2,2,2-trifluoroethyl)-1H-benzo[d]imidazol-2(3H)-one], under setting [2], the EC50 was determined as 19 nM.

Consider `O=c1n(Cc2ncc3cc(F)ccc3c2CCCCO)c2cnccc2n1C1CC1` [Example 6g, 1-cyclopropyl-3-((7-fluoro-4-(4-hydroxybutyl)isoquinolin-3-yl)methyl)-1H-imidazo[4,5-c]pyridin-2(3H)-one], for which the EC50 under setting [2] is 41 nM.

For `COC(=O)N1CCC(n2c(=O)n(Cc3ncc4cc(F)ccc4c3CCCCO)c3cnccc32)CC1` [Example 7b, Methyl 4-(3-((7-fluoro-4-(4-hydroxybutyl)isoquinolin-3-yl)methyl)-2-oxo-2,3-dihydro-1H-imidazo[4,5-c]pyridin-1-yl)piperidine-1-carboxylate], under setting [2], the EC50 was 11 nM.

Regarding `O=c1n(Cc2ncc3ccccc3c2CCCC(F)(F)F)c2cnccc2n1C1CC1` [Example 8e, 1-cyclopropyl-3-((4-(4,4,4-trifluorobutyl)isoquinolin-3-yl)methyl)-1H-imidazo[4,5-c]pyridin-2(3H)-one], the EC50 under setting [2] was found to be 9 nM.

As to `COC(=O)N1CCC(n2c(=O)n(Cc3ncc4ccccc4c3CCCC(F)(F)F)c3cnccc32)CC1` [Example 9b, methyl 4-(2-oxo-3-((4-(4,4,4-trifluorobutyl)isoquinolin-3-yl)methyl)-2,3-dihydro-1H-imidazo[4,5-c]pyridin-1-yl)piperidine-1-carboxylate], under setting [2], the EC50 was 4 nM.

On to `O=c1n(Cc2ncc3ccccc3c2-c2cccc(CO)c2)c2cnccc2n1C1CC1` [Example 10, 1-Cyclopropyl-3-((4-(3-(hydroxymethyl)phenyl)isoquinolin-3-yl)methyl)-1H-imidazo[4,5-c]pyridin-2(3H)-one], for which, under setting [2], the EC50 was determined as 240 nM.

With `COC(=O)N1CCC2(CC1)C(=O)N(Cc1ncc3ccccc3c1CCCS(C)(=O)=O)c1cnccc12` [Example 11c, Methyl 1′-((4-(3-(methylsulfonyl)propyl)isoquinolin-3-yl)methyl)-2′-oxo-1′,2′-dihydrospiro[piperidine-4,3′-pyrrolo[2,3-c]pyridine]-1-carboxylate], the EC50 under setting [2] amounted to 88 nM.

As to `COC(=O)N1CCC2(CC1)C(=O)N(Cc1ncc3ccccc3c1-c1ccc(C#N)cc1)c1cnccc12` [Example 12b, Methyl 1′-((4-(4-cyanophenyl)isoquinolin-3-yl)methyl)-2′-oxo-1′,2′-dihydrospiro[piperidine-4,3′-pyrrolo[2,3-c]pyridine]-1-carboxylate], under setting [2], the half-maximal effective concentration (EC50) was determined as 10 nM.

Consider `COC(=O)N1CCC2(CC1)C(=O)N(Cc1ncc3ccccc3c1-c1ccc(C#N)nc1)c1cnccc12` [Example 13, Methyl 1′-((4-(6-cyanopyridin-3-yl)isoquinolin-3-yl)methyl)-2′-oxo-1′,2′-dihydrospiro[piperidine-4,3′-pyrrolo[2,3-c]pyridine]-1-carboxylate], for which the EC50 (human respiratory syncytial virus, HEp-2, 72 h) was 3 nM.

As for `COC(=O)N1CCC(n2c(=O)n(Cc3ncc4ccccc4c3CCCCO)c3cc(F)c(F)cc32)CC1` [Example 14c, methyl 4-(5,6-difluoro-3-((4-(4-hydroxybutyl)isoquinolin-3-yl)methyl)-2-oxo-2,3-dihydro-1H-benzo[d]imidazol-1-yl)piperidine-1-carboxylate], under setting [2], the EC50 came out at 75 nM.

As for `COC(=O)N1CCC(n2c(=O)n(Cc3ncc4ccccc4c3CCCCO)c3cncc(Cl)c32)CC1` [Example 15, Methyl 4-(7-chloro-3-((4-(4-hydroxybutyl)isoquinolin-3-yl)methyl)-2-oxo-2,3-dihydro-1H-imidazo[4,5-c]pyridin-1-yl)piperidine-1-carboxylate], the EC50 under setting [2] is 2.2 nM.

Take `COC(=O)N1CCC(n2c(=O)n(Cc3ncc4ccccc4c3CCCCO)c3cccc(Cl)c32)CC1` [Example 16, Methyl 4-(7-chloro-3-((4-(4-hydroxybutyl)isoquinolin-3-yl)methyl)-2-oxo-2,3-dihydro-1H-benzo[d]imidazol-1-yl)piperidine-1-carboxylate]: the EC50 under setting [2] was found to be 19 nM.

As for `COC(=O)N1CC2(CC(n3c(=O)n(Cc4ncc5ccccc5c4CCCCO)c4ccccc43)C2)C1` [Example 17, Methyl 6-(3-((4-(4-hydroxybutyl)isoquinolin-3-yl)methyl)-2-oxo-2,3-dihydro-1H-benzo[d]imidazol-1-yl)-2-azaspiro[3.3]heptane-2-carboxylate], the EC50 under setting [2] was 58 nM.

As to `CS(=O)(=O)N1CCC(n2c(=O)n(Cc3ncc4ccccc4c3CCCCO)c3cnccc32)CC1` [Example 18c, 3-((4-(4-hydroxybutyl)isoquinolin-3-yl)methyl)-1-(1-(methylsulfonyl)piperidin-4-yl)-1H-imidazo[4,5-c]pyridin-2(3H)-one], under setting [2], the EC50 is 3.4 nM.

Consider `O=c1n(Cc2ncc3cc(Cl)ccc3c2CCCCO)c2cnccc2n1C1CC1` [Example 19b, 3-((7-chloro-4-(4-hydroxybutyl)isoquinolin-3-yl)methyl)-1-cyclopropyl-1H-imidazo[4,5-c]pyridin-2(3H)-one], for which the EC50 under setting [2] came to 110 nM.

For the compound `COC(=O)N1CCC(n2c(=O)n(Cc3ncc4cc(Cl)ccc4c3CCCCO)c3cnccc32)CC1` [Example 20, Methyl 4-(3-((7-chloro-4-(4-hydroxybutyl)isoquinolin-3-yl)methyl)-2-oxo-2,3-dihydro-1H-imidazo[4,5-c]pyridin-1-yl)piperidine-1-carboxylate], the EC50 under setting [2] was 8.5 nM.
